Earlier results in US11766396B2, “Kit and method for dyeing keratinous material by means of aminosilicone and a chromophoric compound” (Henkel AG & Co. KGaA, priority 2019, dated 2023).

What was measured:
[1] = 25° C.
[2] = 5% solution in water

| pH value of solution in water [2] | Compound | solubility in water [1] |
| --- | --- | --- |
|  | O=C([O-])c1c(Cl)c(Cl)c(Cl)c(Cl)c1-c1c2c(Br)cc(=O)c(Br)c-2oc2c(Br)c(O)cc(Br)c12.O=C([O-])c1c(Cl)c(Cl)c(Cl)c(Cl)c1-c1c2c(Br)cc(=O)c(Br)c-2oc2c(Br)c(O)cc(Br)c12.[Na+].[Na+] [Acid Red 92, disodium salt of 3,4,5,6-tetrachloro-2-(1,4,5,8-tetrabromo-6-hydroxy-3-oxoxanthen-9-yl)benzoic acid] | greater than 10 g/L |
|  | O=C([O-])C1=NN(c2ccc(S(=O)(=O)[O-])cc2)C(=O)C1N=Nc1ccc(S(=O)(=O)[O-])cc1.[Na+].[Na+].[Na+] (centres unmarked) [Acid Yellow 23, trisodium salt of 4,5-dihydro-5-oxo-1-(4-sulfophenyl)-4-((4-sulfophenyl)azo)-1H-pyrazole-3-carboxylic acid] | highly soluble |
| 4.4 | O=P([O-])(O)O.[K+] [Potassium dihydrogen phosphate] |  |
|  | Nc1cc(S(=O)(=O)[O-])cc2cc(S(=O)(=O)[O-])c(N=Nc3ccccc3)c(O)c12.[Na+].[Na+] [Acid Red 33, diantrium salt of 5-amino-4-hydroxy-3-(phenylazo)-naphthalene-2,7-disulphonate] | 2.5 mg/mL |
|  | O=S(=O)([O-])c1ccc(N=Nc2c(O)ccc3ccccc23)cc1.[Na+] [Acid Orange 7, sodium salt of 4-[(2-hydroxy-1-naphthyl)azo]benzene sulphonate] | more than 7 g/L |
